Test: xn = mol fraction of the nth substance listed

CCCCOCCOCCOCCO + ClC=C(Cl)Cl
298.15 K, 101.33 kPa
Conditions | viscosity [mPa·s]
x1 = 0.008 | 0.55
x1 = 0.0207 | 0.583
x1 = 0.0326 | 0.62
x1 = 0.0484 | 0.671
x1 = 0.0692 | 0.742
x1 = 0.0868 | 0.809
x1 = 0.1122 | 0.913
x1 = 0.1472 | 1.064
x1 = 0.1817 | 1.242
x1 = 0.2132 | 1.421
x1 = 0.2487 | 1.641
x1 = 0.2772 | 1.839
x1 = 0.3104 | 2.088
x1 = 0.3418 | 2.329
x1 = 0.3841 | 2.663
x1 = 0.4202 | 2.968
x1 = 0.4555 | 3.288
x1 = 0.4882 | 3.585
x1 = 0.5244 | 3.929
x1 = 0.5826 | 4.489
x1 = 0.6409 | 5.1
x1 = 0.6866 | 5.591
x1 = 0.7428 | 6.2
x1 = 0.8128 | 6.968
x1 = 0.8883 | 7.84
x1 = 0.9261 | 8.238
x1 = 0.967 | 8.732
x2 = 0.0136 | 8.939

CCCCC(CC)COP(=O)(O)OCC(CC)CCCC (stereo not given) + Clc1ccccc1
viscosity [mPa·s], 101 kPa
Conditions | x1 = 0.0374 | x1 = 0.0804 | x1 = 0.1303 | x1 = 0.1888 | x1 = 0.2587 | x1 = 0.3436 | x1 = 0.4481 | x1 = 0.5826 | x1 = 0.7584
303.15 K | 0.8898 | 1.127 | 1.45 | 1.903 | 2.556 | 3.531 | 5.039 | 7.539 | 11.9
313.15 K | 0.766 | 0.9413 | 1.176 | 1.498 | 1.953 | 2.619 | 3.629 | 5.271 | 8.078
323.15 K | 0.6693 | 0.7965 | 0.9633 | 1.187 | 1.497 | 1.939 | 2.595 | 3.637 | 5.374

CCCC[n+]1cc[nH]c1.O=S(=O)([N-]S(=O)(=O)C(F)(F)F)C(F)(F)F + N
Conditions | viscosity [mPa·s]
313.2 K, 101.33 kPa, x2 = 0.7076 | 9.866

Cc1cccc(O)c1 + Nc1ccccc1
298.15 K, 101 kPa
Conditions | viscosity [mPa·s]
x1 = 0.3 | 6.799
x1 = 0.374 | 8.194
x1 = 0.461 | 9.622
x1 = 0.549 | 11.12
x1 = 0.631 | 12.2
x1 = 0.778 | 12.31

[Br-].[Br-].[Br-].[Sb+3] + Nc1ccccc1
323.15 K, 101 kPa
Conditions | viscosity [mPa·s]
x1 = 0.1 | 6.997
x1 = 0.25 | 182.4
x1 = 0.333 | 2175
x1 = 0.4 | 7012
x1 = 0.45 | 20680
x1 = 0.47 | 23030
x1 = 0.49 | 24420
x1 = 0.5 | 24690
x1 = 0.51 | 20780
x1 = 0.53 | 16040
x1 = 0.55 | 7888
x1 = 0.6 | 3022
x1 = 0.75 | 272.9

CC1CCC(=O)O1 (stereo not given) + O
viscosity [mPa·s], 101 kPa
Conditions | x1 = 0.0503 | x1 = 0.0995 | x1 = 0.1997 | x1 = 0.2994 | x1 = 0.3997 | x1 = 0.499 | x1 = 0.5994 | x1 = 0.701 | x1 = 0.7995 | x1 = 0.8996
298.15 K | 1.405 | 1.747 | 2.113 | 2.204 | 2.169 | 2.055 | 1.998 | 1.902 | 1.856 | 1.823
303.15 K | 1.243 | 1.533 | 1.852 | 1.939 | 1.921 | 1.831 | 1.786 | 1.719 | 1.689 | 1.671
308.15 K | 1.107 | 1.357 | 1.638 | 1.721 | 1.714 | 1.65 | 1.612 | 1.566 | 1.545 | 1.538
313.15 K | 0.962 | 1.193 | 1.449 | 1.529 | 1.531 | 1.487 | 1.454 | 1.426 | 1.408 | 1.407
318.15 K | 0.8912 | 1.089 | 1.31 | 1.384 | 1.392 | 1.36 | 1.342 | 1.32 | 1.311 | 1.314

CCCCOCCOCCOCCO + O
viscosity [mPa·s], 101 kPa
Conditions | 293.15 K | 303.15 K | 313.15 K | 323.15 K
x1 = 0.009612 | 1.536 | 1.175 | 0.9391 | 0.7657
x1 = 0.02136 | 2.342 | 1.741 | 1.356 | 1.094
x1 = 0.03602 | 3.496 | 2.526 | 1.935 | 1.519
x1 = 0.05509 | 5.103 | 3.614 | 2.685 | 2.137
x1 = 0.08023 | 7.018 | 4.832 | 3.562 | 2.692
x1 = 0.1156 | 9.156 | 6.189 | 4.476 | 3.293
x1 = 0.1685 | 11.21 | 7.424 | 5.289 | 3.913
x1 = 0.2571 | 12.63 | 8.311 | 5.912 | 4.406
x1 = 0.3308 | 12.68 | 8.439 | 6.038 | 4.477
x1 = 0.4398 | 12.35 | 8.238 | 5.926 | 4.406
x1 = 0.5322 | 11.78 | 7.929 | 5.747 | 4.329
x1 = 0.5991 | 11.36 | 7.685 | 5.612 | 4.257
x1 = 0.7291 | 10.51 | 7.271 | 5.407 | 4.147
x1 = 0.8068 | 10.13 | 7.083 | 5.264 | 4.088
x1 = 0.8905 | 9.778 | 6.856 | 5.143 | 3.936

From the CheMixHub viscosity set
